Measured values as given in US8575116B1, “Polyacetylenic compounds for protecting against pancreatic islet atrophy” (Academia Sinica, priority 2010, dated 2013).
Entries after “also recorded” stand apart in the source; their conditions may differ.

Legend:
db/db mice [1] = experiment: Long-term treatment of diabetic db/db mice: blood glucose and blood insulin; format: in vivo, mouse
Method: (§1) FIGS. 1A-F show the anti-diabetic effects of cytopiloyne in db/db mice during long-term treatment. (A) Chemical structure of cytopiloyne (2-β-D-glucopyranosyloxy-1-hydroxytrideca-5,7,9,11-tetrayne). (B) Four groups of 6-to-8-week-old diabetic db/db mice were tube-fed with vehicle, cytopiloyne (CP, 0.5 and 2.5 mgkg^−1 day^−1) or glimepiride (GLM, 2.5 mgkg^−1 day^−1) from 0 to 42 days post-treatment. Blood glucose (BG) levels in these mice were measured. (C) Blood insulin levels from the mice of FIG. 1B. (D) IPGTT was performed in the db/db mice of FIG. 1B on day 0, 28 and 42, and blood glucose levels were monitored for 3.5 h. […] Results from 3 independent experiments are expressed as mean±SEM, and P<0.05 was considered to be statistically significant (*). […]
After 0.5 h, the levels of postprandial blood sugar and insulin from the mice were monitored for additional 4 h. For continued administration, diabetic db/db males were grouped and tube-fed with vehicle, cytopiloyne (0.5 or 2.5 mgkg^−1 day^−1) or glimepiride (2.5 mg kg^−1 day^−1) for the indicated time, while levels of blood sugar, insulin, and glycosylated HbA1c, and glucose tolerance in these mice were determined. […] Unless indicated otherwise, the mice were fasted for 16 h, then Postprandial blood glucose and insulin in these mice were measured. […]

[2] = test system: rat pancreatic islet cells; experiment: Insulin release from rat pancreatic islets (ELISA); format: cell-based
Method: (§2) FIGS. 3A-C show cytopiloyne-mediated insulin release depends on pancreatic islet cells. (A) Rat pancreatic islet cells were incubated with glucose-free KRB buffer containing vehicle or cytopiloyne at 1.5, 3, 7, 14, 28 and 42 μM (FIG. 3A-i). Similarly, rat pancreatic islet cells were incubated with KRB buffer containing vehicle, glimepiride (GLM, 10 μM) or cytopiloyne at 1.5, 3, 7, 14, 28 and 42 μM in the presence of 3.3 mM glucose (LG, FIG. 3A-ii) or 16.7 mM glucose (HG, FIG. 3A-iii). The insulin levels were determined using an insulin ELISA kit. The data presented as mean±SEM of 3 independent experiments. (B) Fed C57BL mice, which had already received an injection of STZ, were administered with an oral dose of vehicle, cytopiloyne (CP, 0.1, 0.5 and 2.5 mgkg^−1), and an intraperitoneal injection of insulin (Ins, 2.5 IUkg^−1). Blood sugar levels in the STZ-treated mice were determined using a glucometer. (C) C57BL mice, which had already received STZ, were orally administered with a single dose of vehicle, cytopiloyne (CP, 0.5 and 2.5 mgkg^−1), glimepiride (GLM, 2.5 mgkg^−1), or metformin (60 mgkg^−1), followed by an intraperitoneal injection with insulin (Ins). Blood sugar levels in the STZ-treated mice were determined using a glucometer. All the results from 3 independent experiments are expressed as mean±SEM, and P<0.05 was considered to be statistically significant (*). The number of mice (n) is indicated in parentheses.
Glucose levels in mouse blood samples were measured using an Elite® glucometer (Bayer, Pittsburgh, Pa., USA). Insulin levels in blood samples or islet cell supernatants were determined by ELISA assays (Mercodia, Uppsala, Sweden). The levels of glycosylated HbA1c in mouse blood samples were measured using DCA 2000 analyzer (Bayer, Pittsburgh, Pa., USA).
Pancreatic islets (10 isletsml^−1) from fasted male Wistar rats were incubated with KRB buffer containing vehicle (1 μl DMSO per ml KRB buffer), glimepiride or cytopiloyne in the absence or presence of glucose for 30 min. The KRB buffer was then collected for ELISA assays.

db/db mice [3] = experiment: Intraperitoneal glucose tolerance test (IPGTT) in db/db mice; format: in vivo, mouse; conditions: 2.5 mgkg^−1 day^−1 for 6 weeks, day 42, db/db mice
Method: as §1, with “h. (E) The percentage of glycosylated HbAlc of whole blood from the mice of FIG. 1B on day 0 and 42. (F) Pancreata of 8- and 16-week-old db/db males, which had received the same treatment as FIG. 1B for 2 (images a-h) and 10 (images i-p) weeks, were stained with hematoxylin and eosin (H&E, images a, c, e, g, i, k, m and o) or hematoxylin and anti-insulin (H&I, images b, d, f, h, j, l, n and p).” for “h.”
Male db/db mice were administered either vehicle, cytopiloyne at 0.5 and 2.5 mgkg^−1 day^−1 or glimepiride at 2.5 mgkg^−1 day^−1 for the indicated time. […] The levels of blood sugar were monitored from −0.5 to 3 h after glucose administration.

STZ-treated C57BL mice = experiment: Blood glucose in STZ-treated (β-cell-depleted) C57BL mice; format: in vivo, mouse; conditions: cytopiloyne oral 0.1, 0.5 and 2.5 mgkg^−1; insulin i.p. 2.5 IUkg^−1
Method: as §2, with “(C) C57BL mice, which had already received STZ, were orally administered with a single dose of vehicle, cytopiloyne (CP, 0.5 and 2.5 mgkg^−1), glimepiride (GLM, 2.5 mgkg^−1), or metformin (60 mgkg^−1), followed by an intraperitoneal injection with insulin (Ins).” left out, “The number of mice (n) is indicated in parentheses.” left out
To deplete pancreatic β-cells in mice, 6-week-old C57BL females (NLAC, Taipei, Taiwan) were intraperitoneally injected with STZ at 200 mgkg^−1. […] Blood glucose levels were monitored for 4 h. […] Blood glucose levels in the mice were monitored from 0 to 4 h after insulin injection.

PKCα = PKCα translocation and phosphorylation (Western blot) in RIN-m5F cells; format: cell-based, rat; conditions: PMA 1 μM, glucose 16.7 mM
Method: FIGS. 5A-D show the effects of cytopiloyne on calcium mobilization, DAG generation and PKCa activation. (A) After Fura 2-AM loading, RIN-m5F cells were stimulated with 16.7 mM glucose (HG) and cytopiloyne at 7, 14 and 28 μM. Level of intracellular calcium, as shown by the 340/380 nm ratio, was detected using a fluorescence spectrophotometer. (B) RIN-m5F cells were pulsed with ^3H-myristic acid (5 Cim1^−1) for 16 hours. After washing, the cells were stimulated with glucose, cytopiloyne, PMA and glimepiride. Total lipids were separated on a silica thin layer plate. DAG and cholesterol were visualized with iodine vapor and identified by their standards. (C) RIN-m5F cells were incubated with vehicle (Mock), cytopiloyne (CP, 3, 7 and 14 μM), PMA (1 μM) and 16.7 mM (HG). Membrane or cytosolic proteins were subjected to Western blot with anti-PKCα and anti-Actin antibodies. (D) RIN-m5F cells were incubated with vehicle (Mock), cytopiloyne (CP 7 μM) and PMA (1 μM). After lysis, total lystaes were subjected to Western blot with anti-PKCα, anti-phospho-PKCα and anti-Actin antibodies.

For CC#CC#CC#CC#CCCC(CO)O[C@@H]1O[C@H](CO)[C@@H](O)[C@H](O)[C@H]1O (stereo partly drawn) [cytopiloyne, 2-β-D-glucopyranosyloxy-1-hydroxytrideca-5,7,9,11-tetrayne], the “blood insulin levels, long-term treatment” value (db/db mice [1]; 0.5 and 2.5 mgkg^−1 day^−1, db/db mice (FIG. 1C)) was “increased blood insulin levels to a greater extent than glimepiride”, the “blood sugar-lowering / anti-diabetic effect compared with glimepiride 2.5 mgkg^−1” value (db/db mice [1]; 2.5 mgkg^−1 day^−1, long-term, fed db/db mice (FIG. 1B)) was “slightly therapeutically better than glimepiride at 2.5 mgkg^−1; also recorded: modestly better anti-diabetic effects at the same dose” and the “insulin secretion from rat islets” value ([2]; 16.7 mM glucose KRB, also glucose-free and low glucose media) was “enhanced insulin secretion in high glucose medium”. The “insulin secretion in the absence of glucose” value ([2]; high dose, glucose-free KRB buffer) was “can still stimulate insulin secretion to some extent even in the absence of glucose”, the “insulin release in pancreatic islets, glucose dependence” value ([2]; low dose (e.g., 3 μM), 0, 3.3 and 16.7 mM glucose) was “simulates insulin release in pancreatic islets in a glucose-dependent manner” and the “glucose tolerance (IPGTT)” value (db/db mice [3]) was “improved glucose tolerance in db/db mice to a greater extent than glimepiride”. For the same compound, the “reduction of hyperglycemia / blood glucose in β-cell-depleted mice” value (STZ-treated C57BL mice) was “lost its ability in regulating both responses”, the “phosphorylation of PKCα” value (PKCα; cytopiloyne 7 μM) was “increased phosphorylation of PKCα” and the “translocation of PKCα from cytoplasm to membrane” value (PKCα; cytopiloyne 3, 7 and 14 μM) was “It was the case”.
